In ChEMBL document CHEMBL1201862, “PubChem BioAssay data set” (2004):
“And” between values parts separate entries of the source, which are not always exact repeats. Identical values can stand only once.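 Five compound concentrations were applied to cells in 96-well plates for 48 hours; endpoints were derived by simple linear interpolation of the resulting dose-response curve. GI50: concentration for 50% inhibition of growth.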 The source made the active and inactive calls. No stated cut-off is given here; in the data, active = GI50 up to about 1.1 µM and inactive = higher.

Columns and labels:
Test in all cases: DTP human tumour cell line panel, 48 h
A498 = test system: A498
BT-549 = test system: BT-549
DU-145 = test system: DU-145
HCC 2998 = test system: HCC 2998
HOP-92 = test system: HOP-92
HT-29 = test system: HT-29
Hs-578T = test system: Hs-578T
OVCAR-3 = test system: OVCAR-3
OVCAR-4 = test system: OVCAR-4
OVCAR-5 = test system: OVCAR-5
SF-295 = test system: SF-295
SNB-75 = test system: SNB-75
T47D = test system: T47D
TK-10 = test system: TK-10
786-0 = test system: 786-0
A549 = test system: A549
ACHN = test system: ACHN
CAKI-1 = test system: CAKI-1
CCRF-CEM = test system: CCRF-CEM
COLO 205 = test system: COLO 205
EKVX = test system: EKVX
HCT-116 = test system: HCT-116
HCT-15 = test system: HCT-15
HL-60 = test system: HL-60
IGROV-1 = test system: IGROV-1
K562 = test system: K562
KM12 = test system: KM12
LOX IMVI = test system: LOX IMVI
M14 = test system: M14
MDA-MB-231 = test system: MDA-MB-231
MDA-MB-435 = test system: MDA-MB-435
MDA-N = test system: MDA-N
MOLT-4 = test system: MOLT-4
Malme-3M = test system: Malme-3M
NCI-H226 = test system: NCI-H226
NCI-H23 = test system: NCI-H23
NCI-H460 = test system: NCI-H460
NCI-H522 = test system: NCI-H522
NCI/ADR-RES = test system: NCI/ADR-RES
OVCAR-8 = test system: OVCAR-8
PC-3 = test system: PC-3
RPMI-8226 = test system: RPMI-8226
RXF 393 = test system: RXF 393
SF-268 = test system: SF-268
SF-539 = test system: SF-539
SK-MEL-28 = test system: SK-MEL-28
SK-MEL-2 = test system: SK-MEL-2
SK-MEL-5 = test system: SK-MEL-5
SK-OV-3 = test system: SK-OV-3
SN12C = test system: SN12C
SNB-19 = test system: SNB-19
SR = test system: SR
SW-620 = test system: SW-620
U-251 = test system: U-251
UACC-257 = test system: UACC-257
UACC-62 = test system: UACC-62
UO-31 = test system: UO-31
HOP-62 = test system: HOP-62
MCF7 = test system: MCF7

Measured: GI50

CC(C)(C)OC(=O)C1C(=O)NC(=O)CC1CC(OCc1ccccc1)C(OCc1ccccc1)C(COCc1ccccc1)OCc1ccccc1 (stereo not drawn)
inactive: A498 > 100 µM | BT-549 24.9 µM and 14.6 µM | DU-145 > 100 µM and 54 µM | HCC 2998 30.8 µM and 54.2 µM | HOP-92 17.5 µM and 13 µM | HT-29 4.76 µM and 8.24 µM | Hs-578T 12 µM and 23.8 µM | OVCAR-3 24.8 µM and 31.3 µM | OVCAR-4 31.6 µM and 21.1 µM | OVCAR-5 35.6 µM and 67.8 µM | SF-295 54.8 µM and 28.3 µM | SNB-75 15 µM and 11.1 µM | T47D 29.3 µM | TK-10 > 100 µM

CO[C@H](c1ccccc1)[C@H](O)[C@](O)(c1ccccc1)P(=O)(OC)OC
inactive: 786-0 > 100 µM | A498 > 100 µM | A549 > 100 µM | ACHN > 100 µM | BT-549 > 100 µM | CAKI-1 > 100 µM | CCRF-CEM > 100 µM | COLO 205 > 100 µM | DU-145 > 100 µM | EKVX > 100 µM | HCC 2998 > 100 µM | HCT-116 > 100 µM | HL-60 > 100 µM | HOP-92 > 100 µM | HT-29 > 100 µM | IGROV-1 > 100 µM | K562 > 100 µM | KM12 > 100 µM | LOX IMVI > 100 µM | M14 > 100 µM | MDA-MB-231 > 100 µM | MDA-MB-435 > 100 µM | MDA-N > 100 µM | MOLT-4 > 100 µM | Malme-3M > 100 µM | NCI-H226 > 100 µM | NCI-H23 > 100 µM | NCI-H460 > 100 µM | NCI-H522 > 100 µM | NCI/ADR-RES > 100 µM | OVCAR-3 > 100 µM | OVCAR-4 > 100 µM | OVCAR-5 > 100 µM | OVCAR-8 > 100 µM | PC-3 > 100 µM | RPMI-8226 > 100 µM | RXF 393 > 100 µM | SF-268 > 100 µM | SF-295 > 100 µM | SF-539 > 100 µM | SK-MEL-28 > 100 µM | SK-MEL-2 > 100 µM | SK-MEL-5 > 100 µM | SK-OV-3 > 100 µM | SN12C > 100 µM | SNB-19 > 100 µM | SNB-75 > 100 µM | SR > 100 µM | SW-620 > 100 µM | T47D > 100 µM | TK-10 > 100 µM | U-251 > 100 µM | UACC-257 > 100 µM | UACC-62 > 100 µM | UO-31 > 100 µM
> 100 µM: HCT-15

CCOC(=O)c1c(-c2ccc(OC)cc2)ccn1C
active: LOX IMVI 0.00227 µM | SF-539 0.0975 µM
> 10 µM: HCT-15
inactive: 786-0 > 10 µM | A549 > 10 µM | ACHN > 10 µM | BT-549 > 10 µM | CAKI-1 > 10 µM | CCRF-CEM > 10 µM | COLO 205 > 10 µM | DU-145 > 10 µM | EKVX > 10 µM | HCC 2998 > 10 µM | HCT-116 > 10 µM | HOP-62 > 10 µM | HOP-92 > 10 µM | HT-29 > 10 µM | Hs-578T > 10 µM | IGROV-1 > 10 µM | K562 > 10 µM | KM12 > 10 µM | M14 > 10 µM | MCF7 > 10 µM | MDA-MB-231 > 10 µM | MDA-MB-435 > 10 µM | MOLT-4 > 10 µM | Malme-3M > 10 µM | NCI-H226 > 10 µM | NCI-H23 > 10 µM | NCI-H460 > 10 µM | NCI-H522 > 9.62 µM | NCI/ADR-RES > 10 µM | OVCAR-3 > 10 µM | OVCAR-4 > 10 µM | OVCAR-5 > 10 µM | OVCAR-8 > 10 µM | RXF 393 9.1 µM | SF-268 > 8.41 µM | SF-295 > 10 µM | SK-MEL-28 4.54 µM | SK-MEL-2 > 10 µM | SK-MEL-5 > 10 µM | SK-OV-3 > 10 µM | SN12C > 10 µM | SNB-19 > 10 µM | SNB-75 > 10 µM | SR > 10 µM | SW-620 > 10 µM | T47D > 10 µM | TK-10 > 10 µM | U-251 > 10 µM | UACC-257 > 10 µM | UACC-62 > 10 µM | UO-31 > 10 µM

CCN(CC)c1c(-c2c(OC(C)C)c(=O)c2=O)c(=O)n2ccsc2c1OC(C)=O
> 100 µM: HCT-15
inactive: 786-0 > 100 µM | A498 > 100 µM | ACHN > 100 µM | BT-549 > 100 µM | CAKI-1 > 100 µM | CCRF-CEM > 100 µM | COLO 205 > 100 µM | DU-145 > 100 µM | EKVX 71.9 µM | HCC 2998 > 100 µM | HCT-116 > 100 µM | HL-60 85.3 µM | HOP-62 > 100 µM | HOP-92 > 100 µM | HT-29 > 100 µM | Hs-578T 17.8 µM | IGROV-1 89.9 µM | K562 > 100 µM | KM12 > 100 µM | LOX IMVI > 100 µM | M14 > 100 µM | MDA-MB-231 > 100 µM | MDA-MB-435 > 100 µM | MDA-N > 100 µM | MOLT-4 > 100 µM | Malme-3M 39.7 µM | NCI-H226 > 100 µM | NCI-H23 > 100 µM | NCI-H460 > 100 µM | NCI-H522 17.5 µM | NCI/ADR-RES > 100 µM | OVCAR-3 > 100 µM | OVCAR-4 > 100 µM | OVCAR-5 > 100 µM | OVCAR-8 > 100 µM | PC-3 > 100 µM | RPMI-8226 34.8 µM | SF-268 > 100 µM | SF-295 > 100 µM | SK-MEL-28 > 100 µM | SK-MEL-2 > 100 µM | SK-MEL-5 > 100 µM | SK-OV-3 > 100 µM | SN12C > 100 µM | SNB-19 > 100 µM | SNB-75 5.13 µM | SR > 100 µM | SW-620 > 100 µM | TK-10 > 100 µM | U-251 > 100 µM | UACC-257 > 100 µM | UACC-62 > 100 µM | UO-31 > 100 µM
